For assay [1], the target named is T1, Aminopeptidase N (Sus scrofa, UniProt P15145).
T1 sequence (P15145 whole entry): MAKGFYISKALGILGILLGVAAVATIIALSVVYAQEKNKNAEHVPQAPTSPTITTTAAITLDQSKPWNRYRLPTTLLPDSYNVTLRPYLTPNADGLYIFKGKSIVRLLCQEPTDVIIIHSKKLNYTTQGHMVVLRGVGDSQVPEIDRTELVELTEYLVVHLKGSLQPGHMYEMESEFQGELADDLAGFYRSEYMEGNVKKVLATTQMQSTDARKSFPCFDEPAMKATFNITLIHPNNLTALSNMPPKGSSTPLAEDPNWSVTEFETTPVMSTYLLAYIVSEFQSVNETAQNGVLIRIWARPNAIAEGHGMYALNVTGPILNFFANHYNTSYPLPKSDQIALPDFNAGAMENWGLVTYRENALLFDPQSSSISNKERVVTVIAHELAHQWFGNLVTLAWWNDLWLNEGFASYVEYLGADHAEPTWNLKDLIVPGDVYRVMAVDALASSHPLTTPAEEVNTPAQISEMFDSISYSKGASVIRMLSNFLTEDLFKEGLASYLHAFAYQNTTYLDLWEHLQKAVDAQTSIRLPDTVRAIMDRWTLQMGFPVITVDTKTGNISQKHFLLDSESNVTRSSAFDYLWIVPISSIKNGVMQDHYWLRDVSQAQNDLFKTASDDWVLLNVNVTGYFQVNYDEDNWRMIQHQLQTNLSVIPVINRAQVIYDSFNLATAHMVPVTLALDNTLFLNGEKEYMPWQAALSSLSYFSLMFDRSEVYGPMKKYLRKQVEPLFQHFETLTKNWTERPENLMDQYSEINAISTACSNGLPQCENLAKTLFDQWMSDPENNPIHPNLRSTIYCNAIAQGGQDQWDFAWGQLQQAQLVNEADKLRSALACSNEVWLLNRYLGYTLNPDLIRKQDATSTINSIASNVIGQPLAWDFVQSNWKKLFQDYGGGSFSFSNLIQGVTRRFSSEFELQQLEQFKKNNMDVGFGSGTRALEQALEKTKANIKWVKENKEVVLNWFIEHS
Description: Inhibition of pig kidney microsome aminopeptidase N using L-Leu-p-nitroanilide substrate. The note with it: for pIC50: read-out: IC50.

The target of assay [2] is 72 kDa type IV collagenase (Homo sapiens, UniProt P08253). Description: Inhibition of MMP2 after 30 mins. Conditions: for pIC50: read-out: IC50; call rule not given here.
The target in assay [3] is Aminopeptidase N (Homo sapiens, UniProt P15144). Description: Inhibition of aminopeptidase N in human ES2 cells assessed as L-Leu-p-nitroanilide hydrolysis. Format: cell-based.
Assay [4] concerns MDA-MB-231. Description: Antiproliferative activity against human MDA-MB-231 cells after 48 hrs by MTT assay. It is filed as functional, cell-based. Conditions: MDA-MB-231, 48 h. (Tetrazolium assays rely on reduction of a dye to a coloured formazan, in cell work by metabolically active cells.)
A short description of assay [5]: cells. Conditions: Homo sapiens, ES-2, 48 h.
Description: Antiproliferative activity against human ES2 cells after 48 hrs by MTT assay

pIC50: −log10 of the molar value. Where a SMILES comes first, the peptide text is derived from it. [ ]: non-standard residue; d: D form. The star is where a group is joined. Hyp = O=C(O)[C@@H]1C[C@@H](O)CN1; Tic = O=C(O)[C@@H]1Cc2ccccc2CN1; Phg = N[C@H](C(=O)O)c1ccccc1; NHOH = ON*

Sequence of 72 kDa type IV collagenase (P08253 whole entry): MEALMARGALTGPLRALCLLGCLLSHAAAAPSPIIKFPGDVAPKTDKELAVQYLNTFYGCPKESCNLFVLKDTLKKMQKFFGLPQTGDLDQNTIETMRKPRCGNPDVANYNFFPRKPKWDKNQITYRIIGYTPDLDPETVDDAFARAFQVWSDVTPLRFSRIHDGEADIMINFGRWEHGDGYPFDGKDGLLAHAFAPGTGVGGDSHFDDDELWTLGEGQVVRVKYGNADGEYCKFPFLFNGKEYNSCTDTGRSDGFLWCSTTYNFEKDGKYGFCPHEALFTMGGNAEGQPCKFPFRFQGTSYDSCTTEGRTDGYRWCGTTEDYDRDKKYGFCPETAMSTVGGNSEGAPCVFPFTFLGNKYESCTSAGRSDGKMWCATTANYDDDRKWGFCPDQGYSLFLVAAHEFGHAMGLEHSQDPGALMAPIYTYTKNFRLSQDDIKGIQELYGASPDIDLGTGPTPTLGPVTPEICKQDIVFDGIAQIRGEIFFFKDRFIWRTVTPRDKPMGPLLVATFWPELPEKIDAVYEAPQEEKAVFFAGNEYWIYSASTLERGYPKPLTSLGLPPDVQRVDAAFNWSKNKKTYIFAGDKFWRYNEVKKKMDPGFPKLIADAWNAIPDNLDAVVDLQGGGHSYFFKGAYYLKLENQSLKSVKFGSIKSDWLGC
Sequence of Aminopeptidase N (Homo sapiens, UniProt P15144) (P15144 whole entry): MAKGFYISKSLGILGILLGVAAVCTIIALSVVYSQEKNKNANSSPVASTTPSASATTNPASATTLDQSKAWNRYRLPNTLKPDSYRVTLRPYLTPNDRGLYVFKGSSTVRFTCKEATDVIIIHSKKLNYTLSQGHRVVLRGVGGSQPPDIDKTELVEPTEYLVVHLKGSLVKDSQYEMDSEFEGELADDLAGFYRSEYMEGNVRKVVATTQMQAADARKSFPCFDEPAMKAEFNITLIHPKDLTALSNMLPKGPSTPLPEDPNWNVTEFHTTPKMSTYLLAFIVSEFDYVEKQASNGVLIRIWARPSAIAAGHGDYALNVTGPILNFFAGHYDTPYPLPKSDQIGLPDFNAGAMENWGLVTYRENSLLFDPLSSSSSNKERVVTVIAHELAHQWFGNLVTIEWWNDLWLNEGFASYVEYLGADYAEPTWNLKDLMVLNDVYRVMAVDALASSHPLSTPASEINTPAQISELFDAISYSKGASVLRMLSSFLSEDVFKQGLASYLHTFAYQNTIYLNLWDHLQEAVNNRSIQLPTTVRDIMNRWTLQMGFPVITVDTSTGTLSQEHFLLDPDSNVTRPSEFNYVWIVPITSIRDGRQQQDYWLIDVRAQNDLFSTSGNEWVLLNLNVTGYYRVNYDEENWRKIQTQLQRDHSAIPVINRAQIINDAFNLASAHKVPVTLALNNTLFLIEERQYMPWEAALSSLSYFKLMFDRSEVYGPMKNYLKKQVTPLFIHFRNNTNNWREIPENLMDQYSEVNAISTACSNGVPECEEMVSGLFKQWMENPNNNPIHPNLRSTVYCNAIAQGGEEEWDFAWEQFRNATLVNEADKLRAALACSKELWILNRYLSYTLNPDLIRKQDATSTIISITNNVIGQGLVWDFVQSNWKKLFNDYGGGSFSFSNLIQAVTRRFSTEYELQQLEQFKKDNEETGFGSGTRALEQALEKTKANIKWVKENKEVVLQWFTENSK

For orientation: pIC50 means the IC50 on a negative log10 scale, so that one unit is a factor of ten. On to `Cl.O=C(CN1C(=O)CC[C@H](NC(=O)[C@@H]2Cc3ccccc3CN2)C1=O)NO`, for which the pIC50 in assay [1] is 4.69. Moreover, the IC50 result in assay [2] was “Not Active”.
For the compound `O=C(CCNC(=O)[C@@H]1Cc2ccccc2CN1)NO`, the results for the pIC50 in assay [1] and in assay [2] were 4.43 and 3.29, respectively.
The matching figures for `O=C(CCCNC(=O)[C@@H]1Cc2ccccc2CN1)NO`: 4.35 and 3.60.
As for `Cl.O=C(N[C@@H](Cc1cc2ccccc2[nH]1)C(=O)NO)[C@@H]1Cc2ccccc2CN1`, the pIC50 in assay [1] was 4.36. In addition, in assay [2], the IC50 result was “Not Active”.
Regarding `C[C@H](NC(=O)[C@@H]1Cc2ccccc2CN1)C(=O)NO` (H-[Tic]-Ala-{NHOH}), the values for the pIC50 in assay [1] and in assay [2] were 4.08 and 3.33, respectively.
Turning to `O=C(CNC(=O)[C@@H]1Cc2ccccc2CN1)NO` (H-[Tic]-Gly-{NHOH}), the pIC50 in assay [1] was 4.66; in assay [2], 3.60.
In the case of `CC[C@H](C)[C@H](NC(=O)[C@@H]1Cc2ccccc2CN1)C(=O)NO.Cl` (H-[Tic]-Ile-{NHOH}), in assay [1], the IC50 result is recorded as “Not Active”. For the same compound, the pIC50 in assay [2] is 3.17.
In the case of `CC(C)C[C@H](NC(=O)[C@H](CC(C)C)NC(=O)[C@@H]1Cc2ccccc2CN1)C(=O)NO.Cl` (H-[Tic]-Leu-Leu-{NHOH}), in assay [1], the pIC50 was 3.32. For the same compound, in assay [2], the IC50 result is given as “Not Active”.
As to `CC(C)C[C@H](NC(=O)[C@@H]1Cc2ccccc2CN1)C(=O)N[C@@H](Cc1ccccc1)C(=O)NO` (H-[Tic]-Leu-Phe-{NHOH}), the values for the pIC50 in assay [1] and in assay [2] were 3.33 and 3.18, respectively.
The corresponding values for `CC(C)C[C@H](NC(=O)[C@@H]1Cc2ccccc2CN1)C(=O)NO` (H-[Tic]-Leu-{NHOH}) are 4.56 and 3.08.
`CSCC[C@H](NC(=O)[C@@H]1Cc2ccccc2CN1)C(=O)NO` (H-[Tic]-Met-{NHOH}): the pIC50 is 5.06 in assay [1] and 3.78 in assay [2].
Turning to `CC(C)C[C@H](NC(=O)[C@H](Cc1ccccc1)NC(=O)[C@@H]1Cc2ccccc2CN1)C(=O)NO.Cl` (H-[Tic]-Phe-Leu-{NHOH}), the pIC50 in assay [1] was 3.26. Also, the IC50 entry in assay [2] is “Not Active”.
The matching figures for `Cl.O=C(N[C@@H](Cc1ccccc1)C(=O)N[C@@H](Cc1ccccc1)C(=O)NO)[C@@H]1Cc2ccccc2CN1` (H-[Tic]-Phe-Phe-{NHOH}): 3.36 and “Not Active”.
As to `O=C(N[C@@H](Cc1ccccc1)C(=O)NO)[C@@H]1Cc2ccccc2CN1` (H-[Tic]-Phe-{NHOH}), the pIC50 in assay [1] was 4.89; in assay [2], 3.03.
As to `O=C(NO)[C@@H]1CCCN1C(=O)[C@@H]1Cc2ccccc2CN1` (H-[Tic]-Pro-{NHOH}), the pIC50 was 3.98 in assay [1] and 3.80 in assay [2].
For `O=C(N[C@@H](CO)C(=O)NO)[C@@H]1Cc2ccccc2CN1` (H-[Tic]-Ser-{NHOH}), the pIC50 in assay [1] is 4.40; in assay [2], 3.57.
Consider `C[C@@H](O)[C@H](NC(=O)[C@@H]1Cc2ccccc2CN1)C(=O)NO` (H-[Tic]-Thr-{NHOH}), for which the pIC50 was 4.33 in assay [1] and 3.70 in assay [2].
As for `O=C(N[C@@H](Cc1ccc(O)cc1)C(=O)NO)[C@@H]1Cc2ccccc2CN1` (H-[Tic]-Tyr-{NHOH}), the results for the pIC50 in assay [1] and in assay [2] were 5.03 and 3.27, respectively.
For `CC(C)[C@H](NC(=O)[C@@H]1Cc2ccccc2CN1)C(=O)NO` (H-[Tic]-Val-{NHOH}), the pIC50 in assay [1] is 4.44; in assay [2] it was 3.51.
Turning to `Cl.O=C(NO)[C@@H]1C[C@@H](O)CN1C(=O)[C@@H]1Cc2ccccc2CN1` (H-[Tic]-[Hyp]-{NHOH}), in assay [1], the IC50 entry is “Not Active”. In assay [2], the pIC50 is 3.56.
For `O=C(N[C@H](C(=O)NO)c1ccccc1)[C@@H]1Cc2ccccc2CN1` (H-[Tic]-[Phg]-{NHOH}), the pIC50 in assay [1] is 5.20; in assay [2], 3.41; in assay [3], 4.49; in assay [4], 3.23; in assay [5], 3.76. In addition, in assay [3], the inhibition entry is “Dose-dependent effect”.
Regarding `CC(C)C[C@H](NC(=O)[C@@H](O)[C@H](N)Cc1ccccc1)C(=O)O` [UBENIMEX], the pIC50 is 3.12 in assay [4] and 3.85 in assay [5].

For the origin of these results see ChEMBL document CHEMBL1828564, “Design, synthesis and biological evaluation of novel 1,2,3,4-tetrahydroisoquinoline-3-carboxylic acid derivatives as aminopeptidase N/CD13 inhibitors” (Bioorg Med Chem, 2011).
